Assay results from patent US20230043863A1, “HETEROAROMATIC DERIVATIVES FOR USE AS REGULATOR, PREPARATION METHOD THEREFOR AND USE THEREOF” (JIANGSU HANSOH PHARMACEUTICAL GROUP CO., LTD., priority 2018, published 2023).
Like-named read-outs stand apart in the source and are kept apart here. Each block holds one compound with its values, some of them ahead of it.

Columns and labels:
[1] = biological target: JAK1 (Homo sapiens, UniProt P23458); assay: JAK kinase activity inhibition, TR-FRET (JAK1); assay type: biochemical; settings: TR-FRET kinase assay
Outline: (§1)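 Steps: compound dilutions added; JAK kinase (0.1-20 nM) in HEPES/MgCl2 buffer added; peptide substrate and ATP mix started the reaction, 0.5-5 h at room temperature; EDTA and labeled antibody added, 1-24 h further. IC50 derived from 620/665 nm signals by four-parameter nonlinear fitting.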

[2] = biological target: JAK2 (Homo sapiens, UniProt O60674); assay: JAK kinase activity inhibition, TR-FRET (JAK2); assay type: biochemical; settings: TR-FRET kinase assay
Procedure: (§2) Experimental objective: The objective of this test is to test the inhibitory effect of the compound on JAK kinase activity.
(§3) Experimental method: the fluorescence resonance energy transfer (TR-FRET) method was used to test the inhibitory effect of the compound on JAK kinase activity, and the half inhibitory concentration IC50 of the compound on JAK kinase activity was obtained.
(§4) Kinase reaction was carried out in a white 384-well plate (PerkinElmer). 1-5 μL of different concentrations of the compound diluted with DMSO and ddH2O was added into each well, and 1-5 μL of the corresponding solvent was added to the positive control wells, followed by addition of 0.1-20 nM JAK kinase solution diluted with 1-5 μL of kinase buffer (HEPES 50-250 mM, MgCl2 5-20 mM, etc.) was added to each well. 1-5 μL of kinase buffer was added to the negative control well. 1-5 μL of substrate mixture containing peptide substrate and ATP was added. The plate was incubated at room temperature for 0.5-5 hours. […], EDTA and detection solution containing labeled antibody was added, and then the plate was incubated at room temperature for another 1-24 hours. The fluorescence signal value at about 620 nm and 665 nm of each well was measured by BioTek Synergy H1 plate reader, and the inhibition rate was calculated by the fluorescence signal value. According to the inhibition rate of different concentrations, the IC50 of the compound was obtained by curve fitting.
(§5) The percentage inhibition data of the wells treated with the compound was calculated with the positive control wells (DMSO control wells) and negative control wells (no kinase added) on the plate {% inhibition rate=100-[(test compound value-negative control value)]/(Positive control value-negative control value)×100}. IC50 value was calculated by using GraphPad prism to fit the data of different concentrations and corresponding percentage inhibition rates to a 4-parameter non-linear logic formula.

[3] = biological target: T1, JAK3 (Homo sapiens, UniProt P52333); assay: JAK kinase activity inhibition, TR-FRET (JAK3); assay type: biochemical; settings: TR-FRET kinase assay
T1 sequence (P52333 1-1124): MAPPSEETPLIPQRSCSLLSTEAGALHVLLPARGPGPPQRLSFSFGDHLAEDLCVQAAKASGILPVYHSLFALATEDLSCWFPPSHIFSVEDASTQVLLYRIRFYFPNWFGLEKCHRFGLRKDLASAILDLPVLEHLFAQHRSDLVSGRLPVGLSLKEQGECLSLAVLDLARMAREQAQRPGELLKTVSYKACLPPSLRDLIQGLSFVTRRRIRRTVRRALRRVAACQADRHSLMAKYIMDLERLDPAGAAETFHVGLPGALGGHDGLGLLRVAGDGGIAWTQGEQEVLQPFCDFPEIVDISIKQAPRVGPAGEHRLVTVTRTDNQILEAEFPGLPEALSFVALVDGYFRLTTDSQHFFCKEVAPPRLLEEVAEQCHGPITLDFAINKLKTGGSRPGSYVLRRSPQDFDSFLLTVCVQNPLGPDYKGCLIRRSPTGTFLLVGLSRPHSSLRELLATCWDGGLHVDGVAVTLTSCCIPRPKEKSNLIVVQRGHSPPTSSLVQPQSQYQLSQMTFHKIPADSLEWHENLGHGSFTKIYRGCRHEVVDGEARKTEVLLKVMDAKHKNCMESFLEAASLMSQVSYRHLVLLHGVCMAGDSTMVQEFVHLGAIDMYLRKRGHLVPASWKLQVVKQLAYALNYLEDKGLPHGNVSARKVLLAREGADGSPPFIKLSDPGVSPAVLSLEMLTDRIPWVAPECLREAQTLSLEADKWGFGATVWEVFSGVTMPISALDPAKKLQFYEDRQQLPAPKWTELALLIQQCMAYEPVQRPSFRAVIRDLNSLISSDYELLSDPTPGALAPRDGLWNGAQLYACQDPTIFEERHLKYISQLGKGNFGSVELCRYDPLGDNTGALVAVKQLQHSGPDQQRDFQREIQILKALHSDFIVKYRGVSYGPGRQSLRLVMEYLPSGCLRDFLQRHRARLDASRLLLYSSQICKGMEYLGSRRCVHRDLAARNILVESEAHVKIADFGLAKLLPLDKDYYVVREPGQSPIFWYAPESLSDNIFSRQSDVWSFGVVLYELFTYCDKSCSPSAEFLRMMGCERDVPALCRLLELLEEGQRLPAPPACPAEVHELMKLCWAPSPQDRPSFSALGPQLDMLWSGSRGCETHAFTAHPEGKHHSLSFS
Procedure: as §2, §3, §4, §5

[4] = biological target: TYK2 (Homo sapiens, UniProt P29597); assay: JAK kinase activity inhibition, TR-FRET (TYK2); assay type: biochemical; settings: TR-FRET kinase assay
Outline: as §1

[5] = test system: JAK-STAT signal pathway of U266 cells; assay: Inhibition of cellular JAK-STAT signal pathway (STAT3 phosphorylation) in U266 cells; assay type: cell-based, human; settings: Homo sapiens, U-266, INF-a 1000 U/mL stimulation
Outline: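 U266 cells (100-300 K/well) preincubated 2 h at room temperature with serially diluted compound, then stimulated 15 min with IFN-α at 1000 U/mL final. After lysis, STAT3 phosphorylation read by LANCE Ultra TR-FRET (Eu antibody 0.5 nM, ULight antibody 5 nM, overnight) at 665 nm; IC50 from 4-parameter fit of inhibition versus DMSO and negative controls.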

[6] = Balb/C mouse pharmacokinetics (plasma, colon, ileum); assay type: in vivo; settings: male, po, Balb/C mice, p.o. 5 mg/kg; for Cmax: read-out: Blood concentration Cmax; for Tmax: read-out: Time to peak tmax; for AUC(0-t): read-out: Curve area AUC0-t; for MRT: read-out: Mean detention time MRT; for AUC(0-inf): read-out: Curve area AUC0-∞; for half-life: read-out: Half life period t1/2 (converted)
Excerpt: Balb/C mouse was used as the test animal, the pharmacokinetic behavior in mice (plasma and colon, ileum tissue) was studied after oral administering the embodiment 1, embodiment 60, embodiment 169, embodiment 170, embodiment 171, embodiment 179, embodiment 191, embodiment 213, embodiment 214, embodiment 237, embodiment 238, embodiment 244, embodiment 246, embodiment 247, embodiment 257, embodiment 260, embodiment 262, embodiment 263, embodiment 267, embodiment 277, embodiment 278, embodiment 279, embodiment 288, embodiment 295, embodiment 299 and embodiment 301 at a dose of 5 mg/kg. After analyzing the drug concentration in the colon and ileum, the ratio of the drug concentration in the colon to that in ileum, and the ratio of the drug concentration in the colon to that in the plasma, the compounds with excellent PK were selected for further research.
12 Balb/C mice in each group, male, Shanghai Jiesjie Experimental Animal Co., Ltd., animal production license number (SCXK (Shanghai) 2013-0006 N0.311620400001794).
12 Balb/C mice in each group, male; p.o. after one night fast; the dose was 5 mg/kg; the administration volume was 10 mL/kg.
At 0, 0.5, 1, 2, 3, 5 and 7 hours before and after the administration, the mice were executed by CO2 and 0.2 mL of blood was collected from the heart, placed in an EDTA-K2 test tube, and centrifuged at 6000 rpm at 4° C. for 6 minutes to separate the plasma, which was then stored at −80° C. The ileum was taken close to the cecum end with a length of about 4-5 cm, and the colon was also taken close to the cecum end with a length of about 2-3 cm, weighed and placed in a 2 mL centrifuge tube, then stored at −80° C.
1) 40 uL of plasma sample was precipitated by adding 160 uL of acetonitrile, mixed and centrifuged at 3500×g for 5-20 minutes.
2) 30 μL of plasma and intestinal homogenate sample were precipitated by adding 90 of acetonitrile containing internal standard (100 ng/mL), mixed and centrifuged at 13000 rpm for 8 minutes.
3) 70 μL of the supernatant solution after treatment was collected and 70 μL of water was added thereto, vortexed and mixed for 10 minutes, and then 20 μL was collected to analyze the concentration of the test compound by LC/MS/MS. LC/MS/MS analysis instrument: AB Sciex API 4000 Qtrap.
Liquid phase conditions: Shimadzu LC-20AD Pump
Chromatographic column: Agilent ZORBAX XDB-C18 (50×2.1 mm, 3.5 μm) mobile phase: 0.1% formic acid aqueous solution as A solution, acetonitrile as B solution
Elution time: 0-4.0 minutes, the eluent is as follows:
The main pharmacokinetic parameters were calculated with WinNonlin 6.1, and the results of mouse pharmacokinetic experiments are shown in Table 3:
NA refers to none detected or not being tested (the detection limit of blood concentration was 1 ng/mL, when the Cmax in the blood test is NA, then NA in the blood test index refers to none detected; when the Cmax in the blood test is higher than the quantitative limit 1 ng/mL, then NA in the blood test index refers to not being tested; NA in the tissues (colon and ileum) refers to not being tested).

TYK2, sequence (P29597 whole entry): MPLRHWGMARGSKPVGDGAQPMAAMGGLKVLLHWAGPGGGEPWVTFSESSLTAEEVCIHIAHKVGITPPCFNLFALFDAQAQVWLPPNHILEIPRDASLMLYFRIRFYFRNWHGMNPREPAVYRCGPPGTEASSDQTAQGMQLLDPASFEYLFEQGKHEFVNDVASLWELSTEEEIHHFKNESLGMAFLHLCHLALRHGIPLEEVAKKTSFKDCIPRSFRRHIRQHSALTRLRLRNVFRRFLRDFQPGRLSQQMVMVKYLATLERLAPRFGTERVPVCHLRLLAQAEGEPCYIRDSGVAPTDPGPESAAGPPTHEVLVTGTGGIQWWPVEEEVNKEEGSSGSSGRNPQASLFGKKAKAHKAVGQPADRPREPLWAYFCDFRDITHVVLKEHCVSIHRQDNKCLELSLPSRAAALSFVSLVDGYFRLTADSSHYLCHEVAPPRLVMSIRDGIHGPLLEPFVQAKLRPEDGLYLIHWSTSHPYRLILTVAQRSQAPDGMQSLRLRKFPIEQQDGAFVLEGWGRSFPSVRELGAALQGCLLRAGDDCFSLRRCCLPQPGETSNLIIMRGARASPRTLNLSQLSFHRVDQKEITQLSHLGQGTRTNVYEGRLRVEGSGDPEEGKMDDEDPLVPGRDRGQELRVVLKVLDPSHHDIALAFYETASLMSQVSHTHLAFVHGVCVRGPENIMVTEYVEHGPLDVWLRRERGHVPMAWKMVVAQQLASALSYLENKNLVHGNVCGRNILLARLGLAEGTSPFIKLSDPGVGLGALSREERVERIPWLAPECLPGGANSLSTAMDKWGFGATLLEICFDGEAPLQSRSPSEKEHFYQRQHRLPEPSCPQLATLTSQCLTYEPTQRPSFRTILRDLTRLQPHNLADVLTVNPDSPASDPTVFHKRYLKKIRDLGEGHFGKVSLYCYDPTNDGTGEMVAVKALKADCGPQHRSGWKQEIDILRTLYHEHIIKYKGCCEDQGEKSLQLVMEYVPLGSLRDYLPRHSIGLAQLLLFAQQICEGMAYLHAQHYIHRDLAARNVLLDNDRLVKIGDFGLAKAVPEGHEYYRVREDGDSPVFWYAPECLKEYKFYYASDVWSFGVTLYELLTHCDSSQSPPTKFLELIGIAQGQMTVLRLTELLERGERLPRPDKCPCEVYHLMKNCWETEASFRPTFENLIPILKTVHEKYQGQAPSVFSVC
JAK1, sequence (P23458 whole entry): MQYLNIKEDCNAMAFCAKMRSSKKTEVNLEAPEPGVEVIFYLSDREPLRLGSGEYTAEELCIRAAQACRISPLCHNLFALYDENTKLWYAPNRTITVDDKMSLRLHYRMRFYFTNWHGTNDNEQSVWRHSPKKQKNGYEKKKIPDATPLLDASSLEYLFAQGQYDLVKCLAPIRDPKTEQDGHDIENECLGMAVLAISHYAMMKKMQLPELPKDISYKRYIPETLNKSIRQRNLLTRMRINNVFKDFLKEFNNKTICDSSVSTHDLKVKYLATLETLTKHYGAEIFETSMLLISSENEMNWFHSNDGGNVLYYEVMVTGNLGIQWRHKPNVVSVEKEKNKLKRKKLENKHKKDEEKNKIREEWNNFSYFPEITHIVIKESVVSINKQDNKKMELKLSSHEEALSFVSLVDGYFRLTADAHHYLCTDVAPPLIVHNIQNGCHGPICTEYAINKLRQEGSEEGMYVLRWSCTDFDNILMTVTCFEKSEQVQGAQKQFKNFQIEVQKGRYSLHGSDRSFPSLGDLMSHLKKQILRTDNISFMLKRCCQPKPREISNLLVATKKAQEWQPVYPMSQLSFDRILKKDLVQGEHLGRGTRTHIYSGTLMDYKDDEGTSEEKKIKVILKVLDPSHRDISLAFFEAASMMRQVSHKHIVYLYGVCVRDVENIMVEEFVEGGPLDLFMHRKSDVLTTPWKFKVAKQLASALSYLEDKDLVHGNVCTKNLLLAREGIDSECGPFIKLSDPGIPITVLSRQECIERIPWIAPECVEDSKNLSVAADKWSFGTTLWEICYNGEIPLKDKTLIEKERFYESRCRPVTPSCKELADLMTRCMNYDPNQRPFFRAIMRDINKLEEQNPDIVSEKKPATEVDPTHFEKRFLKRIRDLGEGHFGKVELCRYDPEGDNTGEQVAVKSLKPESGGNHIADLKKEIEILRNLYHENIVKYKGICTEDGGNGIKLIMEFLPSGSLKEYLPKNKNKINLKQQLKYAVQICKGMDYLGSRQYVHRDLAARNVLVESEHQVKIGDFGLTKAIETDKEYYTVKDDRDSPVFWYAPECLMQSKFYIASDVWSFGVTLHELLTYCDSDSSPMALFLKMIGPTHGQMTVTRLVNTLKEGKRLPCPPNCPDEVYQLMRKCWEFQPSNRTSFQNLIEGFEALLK
JAK2, sequence (O60674 whole entry): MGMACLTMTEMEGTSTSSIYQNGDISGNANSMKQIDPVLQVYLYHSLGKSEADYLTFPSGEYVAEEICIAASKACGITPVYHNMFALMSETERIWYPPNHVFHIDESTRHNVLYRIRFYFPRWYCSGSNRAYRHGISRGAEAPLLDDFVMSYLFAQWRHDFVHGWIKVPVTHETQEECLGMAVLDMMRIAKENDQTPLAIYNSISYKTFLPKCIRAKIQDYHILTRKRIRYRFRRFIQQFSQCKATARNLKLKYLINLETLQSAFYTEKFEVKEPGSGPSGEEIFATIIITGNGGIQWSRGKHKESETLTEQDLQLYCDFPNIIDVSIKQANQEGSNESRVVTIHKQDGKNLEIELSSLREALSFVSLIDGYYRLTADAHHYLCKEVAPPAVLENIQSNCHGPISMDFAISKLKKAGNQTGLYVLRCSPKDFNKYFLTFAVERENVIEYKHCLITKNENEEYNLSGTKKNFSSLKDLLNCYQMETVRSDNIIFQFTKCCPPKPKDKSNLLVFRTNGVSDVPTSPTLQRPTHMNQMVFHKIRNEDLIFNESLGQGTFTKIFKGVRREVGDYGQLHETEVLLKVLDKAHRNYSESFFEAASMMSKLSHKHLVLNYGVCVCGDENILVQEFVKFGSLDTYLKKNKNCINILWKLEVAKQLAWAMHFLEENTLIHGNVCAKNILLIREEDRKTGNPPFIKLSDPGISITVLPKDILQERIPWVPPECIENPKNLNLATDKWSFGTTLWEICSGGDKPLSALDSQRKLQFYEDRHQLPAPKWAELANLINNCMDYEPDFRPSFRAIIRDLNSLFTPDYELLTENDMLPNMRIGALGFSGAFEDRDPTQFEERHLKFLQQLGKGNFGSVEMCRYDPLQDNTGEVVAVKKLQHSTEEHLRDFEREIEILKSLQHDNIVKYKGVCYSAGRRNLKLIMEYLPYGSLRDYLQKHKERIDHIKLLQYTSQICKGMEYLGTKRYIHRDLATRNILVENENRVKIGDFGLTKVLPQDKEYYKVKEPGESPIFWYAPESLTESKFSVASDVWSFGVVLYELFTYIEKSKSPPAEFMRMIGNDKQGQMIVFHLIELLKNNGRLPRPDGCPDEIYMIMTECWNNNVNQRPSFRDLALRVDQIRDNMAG

IC50 [1]: 0.12 nM | IC50 [2]: 0.73 nM | IC50 [3]: 14.7 nM | IC50 [4]: 0.2 nM
SMILES: Cc1cc(Nc2nc(N[C@@H]3C[C@H]4CC[C@@H](C3)N4CCC#N)nc3cc(-c4cnn(C)c4)ccc23)n[nH]1 [Embodiment 186, 3-((3-exo)-3-((4-((5-methyl-1H-pyrazol-3-yl)amino)-7-(1-methyl-1H-pyrazol-4-yl)quinazolin-2-yl)amino)-8-azabicyclo[3.2.1]oct-8-yl)propionitrile]

IC50 [1]: 44.2 nM | IC50 [2]: > 100 nM | IC50 [3]: > 100 nM | IC50 [4]: 47.3 nM
SMILES: N#CCCN1[C@@H]2CC[C@H]1C[C@H](Nc1nc(Nc3cnccn3)cc3ncccc13)C2 [Embodiment 29, 3-((3-exo)-3-((7-(pyrazin-2-ylamino)-1,6-diazanaphthalen-5-yl)amino)-8-azabicyclo[3.2.1]oct-8-yl)propionitrile]

SMILES: Cc1cc(Nc2nc(N[C@@H]3C[C@H]4CC[C@@H](C3)N4CCC#N)nc3cc(N4CCOCC4)ccc23)n[nH]1 [Embodiment 191, 3-((3-exo)-3-((4-((5-methyl-1H-pyrazol-3-yl)amino)-7-morpholinoquinazolin-2-yl)amino)-8-azabicyclo[3.2.1]oct-8-yl)propionitrile]
IC50 [1]: 0.41 nM | IC50 [4]: 0.94 nM | IC50 [5]: 2.8 nM | Cmax ([6]; plasma, blood): 0.81 ng/mL | Tmax ([6]; plasma, blood): 1 h | Cmax ([6]; colon): 3350 ng/mL | AUC(0-t) ([6]; colon): 10600 ng·h/mL | MRT ([6]; colon): 4.59 h | Tmax ([6]; colon): 5 h | Cmax ([6]; ileum): 32600 ng/mL | AUC(0-t) ([6]; ileum): 51500 ng·h/mL | AUC(0-inf) ([6]; ileum): 51700 ng·h/mL | half-life ([6]; ileum): 1.39 h | MRT ([6]; ileum): 1.13 h | Tmax ([6]; ileum): 1 h

SMILES: Cc1cc(Nc2nc(N[C@@H]3C[C@H]4CC[C@@H](C3)N4CCC#N)nc3cc(-c4cccnc4)ccc23)n[nH]1 [Embodiment 179, 3-((3-exo)-3-((4-((5-methyl-1H-pyrazol-3-yl)amino)-7-(pyridin-3-yl)quinazolin-2-yl)amino)-8-azabicyclo[3.2.1]oct-8-yl)propionitrile]
IC50 [1]: 0.44 nM | IC50 [4]: 0.47 nM | IC50 [5]: 9.84 nM | Cmax ([6]; plasma, blood): 3.8 ng/mL | AUC(0-t) ([6]; plasma, blood): 6.76 ng·h/mL | MRT ([6]; plasma, blood): 1.66 h | Tmax ([6]; plasma, blood): 0.5 h | Cmax ([6]; colon): 485 ng/mL | AUC(0-t) ([6]; colon): 2040 ng·h/mL | AUC(0-inf) ([6]; colon): 2180 ng·h/mL | half-life ([6]; colon): 1.49 h | MRT ([6]; colon): 2.83 h | Tmax ([6]; colon): 1 h | Cmax ([6]; ileum): 2330 ng/mL | AUC(0-t) ([6]; ileum): 10300 ng·h/mL | MRT ([6]; ileum): 2.88 h | Tmax ([6]; ileum): 3 h

SMILES: Cc1cc(Nc2nc(N[C@@H]3C[C@H]4CCC[C@@H](C3)N4C(=O)CN3CCOCC3)nc3ccsc23)n[nH]1 [Embodiment 288, 1-((3-exo)-3-((4-((5-methyl-1H-pyrazol-3-yl)amino)thieno[3,2-d]pyrimidin-2-yl)amino)-9-azabicyclo[3.3.1]non-9-yl)-2-morpholinoethane-1-one]
IC50 [1]: 0.27 nM | IC50 [4]: 8.09 nM | IC50 [5]: 4.03 nM | Cmax ([6]; plasma, blood): 11 ng/mL | AUC(0-t) ([6]; plasma, blood): 21.5 ng·h/mL | AUC(0-inf) ([6]; plasma, blood): 24.5 ng·h/mL | half-life ([6]; plasma, blood): 2.6 h | MRT ([6]; plasma, blood): 2.5 h | Tmax ([6]; plasma, blood): 2 h | Cmax ([6]; colon): 676 ng/mL | AUC(0-t) ([6]; colon): 2900 ng·h/mL | MRT ([6]; colon): 3.91 h | Tmax ([6]; colon): 3 h | Cmax ([6]; ileum): 7380 ng/mL | AUC(0-t) ([6]; ileum): 17600 ng·h/mL | MRT ([6]; ileum): 2.89 h | Tmax ([6]; ileum): 3 h
